Holding throughout (format): functional, cell-based
The subject of one assay is P388. As to the kind of experiment: Cytotoxicity against mouse P388 cells after 48 hrs by MTT assay. The note with it: P388, 48 h. In general terms: Tetrazolium assays rely on reduction of a dye to a coloured formazan, in cell work by metabolically active cells.
The test system of a further assay is HCT-116. As to the kind of experiment: Cytotoxicity against human HCT116 cells after 48 hrs by MTT assay. To be noted: HCT-116, 48 h.
Another assay has as its system HL-60. As to the kind of experiment: Cytotoxicity against human HL60 cells after 48 hrs by MTT assay. To be noted: HL-60, 48 h.

Converted amounts (≈) assume the structure as drawn.

Turning to `CC(CO)c1cc2c(cc1O)[C@@]1(C)CCC(=O)C(C)(C)[C@@H]1CC2` (stereo partly specified), the IC50 with P388 (read-out: IC50), with HCT-116 (read-out: IC50) and in the assay with HL-60 (read-out: IC50) was less than 5 µg/mL throughout.
On to `CC(=O)O[C@H]1C(=O)[C@@]2(C)[C@H]([C@H](OC(=O)c3ccccc3)[C@]3(O)C[C@H](OC(=O)[C@H](O)[C@@H](NC(=O)c4ccccc4)c4ccccc4)C(C)=C1C3(C)C)[C@]1(OC(C)=O)CO[C@@H]1C[C@@H]2O` [PACLITAXEL], for which the IC50 (as a rule, the concentration needed to halve the response being measured) in the assay on P388 (read-out: IC50) is 0.2 µg/mL (≈ 0.234 µM); in the assay on HCT-116 (read-out: IC50), 0.045 µg/mL (≈ 0.0527 µM); in the assay with HL-60 (read-out: IC50) it was 0.005 µg/mL (≈ 0.00586 µM).
Consider `CC(O)c1ccc2c(c1)CC[C@H]1C(C)(C)C(=O)CC[C@]21C` (stereo partly specified), for which the IC50 with P388, with HCT-116 and in the assay on HL-60 was more than 5 µg/mL each time.
For the compound `CC(CO)c1ccc2c(c1)CC[C@H]1C(C)(C)[C@@H](O)C(=O)C[C@]21C` (stereo partly specified), the concentration for half-maximal inhibition (IC50) in the assay with P388, in the assay with HCT-116 and in the assay on HL-60 was more than 5 µg/mL throughout.
In the case of `CC(CO)c1ccc2c(c1)CC[C@H]1C(C)(C)C(=O)CC[C@]21C` (stereo partly specified), the IC50 with P388, in the assay with HCT-116 and in the assay with HL-60 was more than 5 µg/mL in each case.
As to `CC(C)c1cc2c(cc1O)C[C@@]13CCCC(C)(C)[C@@H]1C[C@@H]2O3`, the IC50 in the assay with P388, in the assay on HCT-116 and with HL-60 was more than 5 µg/mL throughout.
Turning to `CC(=O)OC[C@]12[C@H](OC(C)=O)[C@H](OC(C)=O)[C@@H]3[C@@H](O)[C@@]14OC3(C)COC(=O)c1cccnc1[C@H](C)[C@@H](C)C(=O)O[C@H]([C@H](O)[C@@H]2OC(=O)c1ccccc1)C4(C)O` (stereo partly specified) [EUOLUCHUMINE], the IC50 in the assay with P388, in the assay with HCT-116 and in the assay on HL-60 was more than 5 µg/mL each time.

The record behind these values is ChEMBL document CHEMBL2384989, “Abietane diterpenoids and a sesquiterpene pyridine alkaloid from Euonymus lutchuensis” (J Nat Prod, 2013).
